Test results taken from US5164188A, “Biodegradable ocular implants” (Visionex, Inc., priority 1989, dated 1992).
Like-named read-outs stand apart in the source and are kept apart here.

Columns and labels:
[1] = rabbit, in vivo
[2] = rabbit, in vivo; remark: listed apart in the source
in vivo [3] = conditions: rabbit
in vivo [4] = conditions: rabbit; remark: listed apart in the source
[5] = MTX level in eye, microcapsules in pars plana (EMIT); format: in vivo, rabbit; conditions: for Drug level, LE PC: left eye, posterior chamber, microcapsule in one eye only
[6] = MTX level in eye, plaque in pars plana (EMIT); format: in vivo, rabbit; conditions: for Drug level, LE PC: left eye, posterior chamber, plaque in one eye only
VX2 adenocarcinoma = conditions: in vitro; cited from earlier work

For `C[C@]12CCC(=O)C=C1CC[C@@H]1[C@@H]2[C@@H](O)C[C@@]2(C)[C@H]1CC[C@]2(O)C(=O)CO` [Hydrocortisone, hydrocortisone], the “Drug level, RE PC” value ([1]; 10080 min) was 0 ng/mL, the “Drug level, RE PC” value ([1]; 20160 min) was 0 ng/mL and the “Drug level, RE PC” value ([1]; 30240 min) was 0 ng/mL. For the same compound, the “Drug level, RE PC” value ([1]; 40320 min) was 0 ng/mL, the “Drug level, RE PC” value ([1]; 50400 min) was 0 ng/mL and the “Drug level, RE PC” value ([1]; 60480 min) was 0 ng/mL. The “Drug level, RE PC” value ([2]; 43200 min) was 0 ng/mL, the “Drug level, RE PC” value ([2]; 86400 min) was 0 ng/mL and the “Drug level, RE PC” value ([2]; 129600 min) was 0 ng/mL. For the same compound, the concentration at 168 h (in vivo [3]) was 1300 ng/mL, the concentration at 336 h (in vivo [3]) was 2000 ng/mL and the concentration at 504 h (in vivo [3]) was 2400 ng/mL. It also gave a concentration at 672 h (in vivo [3]) of 1100 ng/mL, a concentration at 840 h (in vivo [3]) of 900 ng/mL and a concentration at 1008 h (in vivo [3]) of 2000 ng/mL. It also gave a concentration at 720 h (in vivo [4]) of 1300 ng/mL, a concentration at 1440 h (in vivo [4]) of 1900 ng/mL and a concentration at 2160 h (in vivo [4]) of 2300 ng/mL.
With `CN(Cc1cnc2nc(N)nc(N)c2n1)c1ccc(C(=O)N[C@@H](CCC(=O)O)C(=O)O)cc1` [MTX, methotrexate] the “Drug level, LE PC” value ([5]; 1 wk) was 0 ng/mL, the “Drug level, LE PC” value ([5]; 2 wks) was 0 ng/mL and the “Drug level, LE PC” value ([5]; 3 wks) was 0 ng/mL. For the same compound, the “Drug level, LE PC” value ([5]; 4 wks) was 0 ng/mL, the “Drug level, LE PC” value ([5]; 5 wks) was 0 ng/mL and the “Drug level, LE PC” value ([5]; 6 wks) was 0 ng/mL. For the same compound, the concentration at 168 h ([5]; rabbit, posterior chamber of eye, right eye, 1 wk, microcapsule, read-out: Drug level, RE PC) was 800 ng/mL, the concentration at 336 h ([5]; rabbit, posterior chamber of eye, right eye, 2 wks, microcapsule, read-out: Drug level, RE PC) was 1200 ng/mL and the concentration at 504 h ([5]; rabbit, posterior chamber of eye, right eye, 3 wks, microcapsule, read-out: Drug level, RE PC) was 1400 ng/mL. For the same compound, the concentration at 672 h ([5]; rabbit, posterior chamber of eye, right eye, 4 wks, microcapsule, read-out: Drug level, RE PC) was 700 ng/mL, the concentration at 840 h ([5]; rabbit, posterior chamber of eye, right eye, 5 wks, microcapsule, read-out: Drug level, RE PC) was 1000 ng/mL and the concentration at 1008 h ([5]; rabbit, posterior chamber of eye, right eye, 6 wks, microcapsule, read-out: Drug level, RE PC) was 900 ng/mL. The “Drug level, LE PC” value ([6]; 1 mo) was 0 ng/mL, the “Drug level, LE PC” value ([6]; 2 mos) was 0 ng/mL and the “Drug level, LE PC” value ([6]; 3 mos) was 0 ng/mL. It also gave a concentration at 720 h ([6]; rabbit, posterior chamber of eye, right eye, 1 mo, plaque, read-out: Drug level, RE PC) of 1500 ng/mL, a concentration at 1440 h ([6]; rabbit, posterior chamber of eye, right eye, 2 mos, plaque, read-out: Drug level, RE PC) of 4000 ng/mL and a concentration at 2160 h ([6]; rabbit, posterior chamber of eye, right eye, 3 mos, plaque, read-out: Drug level, RE PC) of 2000 ng/mL.
For `CC[C@]1(O)C[C@H]2CN(CCc3c([nH]c4ccccc34)[C@@](C(=O)OC)(c3cc4c(cc3OC)N(C=O)[C@H]3[C@@](O)(C(=O)OC)[C@H](OC(C)=O)[C@]5(CC)C=CCN6CC[C@]43[C@@H]65)C2)C1` [Vincristine], the IC50 (VX2 adenocarcinoma) is given as 2 to 3 ng/mL.
